Assay results reported in publication PMC3914206.

Experiments:
Format in all cases: binding
panel of 442 kinases [1] = target: T1, panel of 442 kinases (Homo sapiens, UniProt P49761); settings: Compound Concentration 10 µM
T1 construct: purchased KINOMEscan
Text: (§1) We assessed the selectivity of members of this scaffold using the KINOMEscan methodology across a near comprehensive panel of 442 kinases [[18,27]].

panel of 442 kinases [2] = target: T2, panel of 442 kinases (Homo sapiens, UniProt Q96L34); settings: Compound Concentration 10 µM
T2 construct: purchased KINOMEscan
T2 sequence (Q96L34 1-752): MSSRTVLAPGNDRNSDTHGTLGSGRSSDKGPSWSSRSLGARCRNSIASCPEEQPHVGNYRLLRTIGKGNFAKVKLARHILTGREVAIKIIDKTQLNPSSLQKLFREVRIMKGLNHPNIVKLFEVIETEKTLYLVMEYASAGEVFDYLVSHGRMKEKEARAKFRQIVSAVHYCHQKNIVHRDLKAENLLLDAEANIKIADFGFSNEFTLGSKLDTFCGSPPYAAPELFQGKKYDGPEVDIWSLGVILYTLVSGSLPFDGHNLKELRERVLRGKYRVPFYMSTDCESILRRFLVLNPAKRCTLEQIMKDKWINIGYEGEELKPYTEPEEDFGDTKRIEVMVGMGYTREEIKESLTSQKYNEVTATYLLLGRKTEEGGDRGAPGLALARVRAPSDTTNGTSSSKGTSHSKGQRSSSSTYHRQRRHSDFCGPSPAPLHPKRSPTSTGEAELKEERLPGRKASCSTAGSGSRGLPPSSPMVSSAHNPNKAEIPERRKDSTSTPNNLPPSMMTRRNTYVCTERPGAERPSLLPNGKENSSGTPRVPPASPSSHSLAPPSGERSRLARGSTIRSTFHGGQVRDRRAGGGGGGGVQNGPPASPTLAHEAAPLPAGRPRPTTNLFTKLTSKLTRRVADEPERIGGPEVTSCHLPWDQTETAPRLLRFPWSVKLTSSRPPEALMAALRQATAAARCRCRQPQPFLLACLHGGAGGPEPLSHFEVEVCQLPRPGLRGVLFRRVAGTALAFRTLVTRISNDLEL
Text: as §1

panel of 442 kinases [3] = target: T3, panel of 442 kinases (Homo sapiens, UniProt Q9H0K1); settings: kinase SIK2; compound concentration 10 µM
T3 construct: purchased KINOMEscan
T3 sequence (Q9H0K1 whole entry): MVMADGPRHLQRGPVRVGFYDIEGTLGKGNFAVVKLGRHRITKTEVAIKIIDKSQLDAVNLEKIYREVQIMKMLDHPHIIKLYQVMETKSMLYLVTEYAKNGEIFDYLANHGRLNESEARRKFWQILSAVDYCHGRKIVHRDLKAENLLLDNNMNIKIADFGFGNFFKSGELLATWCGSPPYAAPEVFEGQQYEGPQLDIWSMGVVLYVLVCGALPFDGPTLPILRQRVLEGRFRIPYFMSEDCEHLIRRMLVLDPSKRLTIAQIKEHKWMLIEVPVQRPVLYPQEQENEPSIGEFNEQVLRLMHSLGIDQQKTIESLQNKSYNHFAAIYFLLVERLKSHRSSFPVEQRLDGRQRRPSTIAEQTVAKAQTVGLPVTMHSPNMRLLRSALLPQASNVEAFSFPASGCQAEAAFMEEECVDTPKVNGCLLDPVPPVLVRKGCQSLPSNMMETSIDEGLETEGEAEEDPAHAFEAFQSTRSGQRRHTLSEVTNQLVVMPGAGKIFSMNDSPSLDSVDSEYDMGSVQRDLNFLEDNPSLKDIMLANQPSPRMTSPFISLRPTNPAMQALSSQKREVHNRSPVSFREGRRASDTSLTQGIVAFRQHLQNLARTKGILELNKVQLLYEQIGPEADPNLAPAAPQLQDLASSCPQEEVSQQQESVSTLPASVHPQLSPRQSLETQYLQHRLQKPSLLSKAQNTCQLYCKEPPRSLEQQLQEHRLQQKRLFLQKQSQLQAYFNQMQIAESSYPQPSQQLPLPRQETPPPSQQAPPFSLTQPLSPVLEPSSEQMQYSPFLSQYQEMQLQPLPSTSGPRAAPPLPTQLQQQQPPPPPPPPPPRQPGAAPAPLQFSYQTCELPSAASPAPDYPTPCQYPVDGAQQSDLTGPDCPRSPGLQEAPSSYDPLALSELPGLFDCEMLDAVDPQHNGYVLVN
Text: as §1

T1 sequence (P49761 whole entry): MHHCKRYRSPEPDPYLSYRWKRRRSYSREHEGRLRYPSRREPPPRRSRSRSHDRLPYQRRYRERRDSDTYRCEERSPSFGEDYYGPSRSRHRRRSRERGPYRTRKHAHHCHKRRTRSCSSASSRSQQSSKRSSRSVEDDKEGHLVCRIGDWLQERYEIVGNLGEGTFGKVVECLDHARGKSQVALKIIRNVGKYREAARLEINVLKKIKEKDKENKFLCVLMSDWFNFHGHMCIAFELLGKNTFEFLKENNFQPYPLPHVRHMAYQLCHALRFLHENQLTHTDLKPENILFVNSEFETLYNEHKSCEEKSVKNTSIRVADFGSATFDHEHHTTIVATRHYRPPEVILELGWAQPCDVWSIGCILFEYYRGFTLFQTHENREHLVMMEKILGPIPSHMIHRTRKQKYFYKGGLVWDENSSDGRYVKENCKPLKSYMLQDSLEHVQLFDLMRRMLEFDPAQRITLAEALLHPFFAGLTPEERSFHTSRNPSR

Compound | KINOMEscan: CLK3 (panel of 442 kinases [1]) | KINOMEscan: MARK4 (panel of 442 kinases [2]) | % Ctrl, SIK2 (panel of 442 kinases [3])
COc1cc(C(=O)N2CCC(N3CCN(C)CC3)CC2)ccc1Nc1ncc2c(n1)N(C1CCCC1)c1ccccc1C(=O)N2C [Compound 25, 11-cyclopentyl-2-((2-methoxy-4-(4-(4-methylpiperazin-1-yl)piperidine-1-carbonyl)phenyl)amino)-5-methyl-5H-benzo[e]pyrimido[5,4-b][1,4]diazepin-6(11H)-one] | 100 | 100 | 95 % Ctrl
CCOc1cc(C(=O)N2CCC(N3CCN(C)CC3)CC2)ccc1Nc1ncc2c(n1)N(C1CCCC1)c1ccccc1C(=O)N2C [Compound 26] | 100 | 100 | 100 % Ctrl
COc1cc(C(=O)N2CCC(N3CCN(C)CC3)CC2)ccc1Nc1ncc2c(n1)N1CCc3cccc(c31)C(=O)N2C [Compound 24] | 80 | 87 | 81 % Ctrl
COc1cc(C(=O)N2CCC(N3CCN(C)CC3)CC2)ccc1Nc1ncc2c(n1)N(C)c1ccccc1C(=O)N2C [15 (LRRK2-IN-1)] | 95 | 78 | 98 % Ctrl
